Laboratory results taken from patent US20070202179A1, “Low Dose Pharmaceutical Products” (priority 2004, published 2007).

Biological target: T1, human PPAR alpha (Homo sapiens, UniProt Q07869)
T1 sequence (Q07869 1-468): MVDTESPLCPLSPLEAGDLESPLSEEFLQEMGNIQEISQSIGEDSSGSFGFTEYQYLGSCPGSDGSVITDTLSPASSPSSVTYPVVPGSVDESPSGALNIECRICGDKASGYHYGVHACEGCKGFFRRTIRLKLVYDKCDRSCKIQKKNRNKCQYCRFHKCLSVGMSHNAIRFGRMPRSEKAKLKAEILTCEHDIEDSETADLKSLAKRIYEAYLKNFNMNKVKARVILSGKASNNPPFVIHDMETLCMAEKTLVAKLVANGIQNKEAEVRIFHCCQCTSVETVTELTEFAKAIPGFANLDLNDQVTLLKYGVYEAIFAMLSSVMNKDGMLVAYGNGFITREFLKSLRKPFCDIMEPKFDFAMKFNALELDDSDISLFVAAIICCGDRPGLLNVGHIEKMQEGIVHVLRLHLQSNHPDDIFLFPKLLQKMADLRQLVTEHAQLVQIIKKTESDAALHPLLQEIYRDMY
Assay: Effectiveness of Compound 1 at very low daily dosage regimes
Format: in vivo
Settings: investigated for dyslipidemia, syndrome X and atherosclerosis
Protocol: The compound of formula (1) is a particularly preferred PPAR alpha agonist and is described in WO 01/40207 as being of use in human PPAR alpha mediated diseases. The dosage regime contemplated in WO 01/40207 is 0.02-5000 mg per day. […] Thus the invention further provides a pharmaceutical composition comprising less than 1-100 μg Compound (1) or pharmaceutically acceptable salts, solvates and physiologically functional derivatives thereof together with a pharmaceutically acceptable carrier. Preferably the composition comprises less than 20 μg, more preferably 1-18 μg, most preferably 1-10 μg.

- Dosage regime at which the compound is effective: less than 0.02 mg per day
Compound: Cc1nc(-c2ccc(C(F)(F)F)cc2)sc1C(=O)NCc1ccc(OC(C)(C)C(=O)O)cc1 [Compound 1, 2-methyl-2-[4-{[(4-methyl-2-[4-trifluoromethylphenyl]-thiazol-5-ylcarbonyl)amino]methyl}phenoxy]propionic acid]
